The source of these data is patent US11147272B2, “Pyridone compounds and agricultural and horticultural fungicides comprising the same as active ingredients” (MITSUI CHEMICALS AGRO, INC., priority 2017, dated 2021).

For one assay, the system named is Plasmopara viticola. Description: Test Example G: Downy mildew on vine. The following applies: 250 ppm drug solution sprayed (2.5 ml/pot), grape Neomuscat, 7 to 10 days after inoculation.
For a further assay, the system named is Magnaporthe grisea. The assay can be described thus: whole plant or invertebrate. The class given is in vivo. The following applies: 250 ppm drug solution sprayed on test plant.
A further assay relates to Puccinia recondita. The assay can be described thus: Test Example E: Brown rust on wheat. The class given is in vivo. The following applies: 250 ppm drug solution sprayed on test plant.
The test system of a further assay is Alternaia brassicicola. Description: Test Example C: Alternaria sooty spot on cabbage. The assay is classed as in vivo. Conditions: 250 ppm drug solution sprayed on test plant. The text has this: Seeds of a test plant (cabbage variety: Shikidori) were planted and cultivated until the cotyledons extended.
<Control Value> Control value=100{1−(n/3)}

Assay [1] concerns Colletotrichum orbiculare. Description: Test Example H: Anthracnose on cucumber. Conditions: 250 ppm drug solution sprayed (2.5 ml/pot), cucumber Sagami Hanjiro, 6 to 10 days after inoculation.
The test system of a further assay is Phytophthora infestans. The assay can be described thus: whole plant or invertebrate. Conditions: 250 ppm drug solution sprayed on test plant. The assay is classed as in vivo.
Assay [2] concerns Blumeria graminis f. sp. hordei. Description: Test Example D: Powdery mildew on barley. The following applies: 250 ppm drug solution sprayed on test plant.
For another assay, the system named is Botrytis cinerea. The assay can be described thus: Test Example B: Gray mold on tomato. The following applies: 250 ppm drug solution sprayed on test plant.

Molecules are shown by their SMILES.

Consider `CCn1c(-c2c(F)cc(OC)cc2F)c(C(OC)C(C)C)cc(Br)c1=O` (centres unmarked) [compound 503], for which the “Test G control value” in the assay on Plasmopara viticola was “H (more than 50% control value)”. Moreover, the “Test A control value” in the assay with Magnaporthe grisea is “H (more than 50% control value)”. In the assay on Puccinia recondita, the “Test E control value” is reported as “H (more than 50% control value)”. In the assay on Alternaia brassicicola, the “Test C control value” is recorded as “H (more than 50% control value)”. The “Test H control value” in assay [1] is “H (more than 50% control value)”. In addition, the “Test F control value” in the assay with Phytophthora infestans is on record as “L (50% or less control value)”. Besides, the “Test D control value” in assay [2] is on record as “H (more than 50% control value)”. Also, the “Test B control value” in the assay on Botrytis cinerea is listed as “H (more than 50% control value)”.
Turning to `CCC(OC)c1cc(Br)c(=O)n(CC)c1-c1c(F)cc(F)cc1F` (centres unmarked) [compound 504], the “Test G control value” in the assay on Plasmopara viticola is given as “H (more than 50% control value)”. In addition, the “Test A control value” with Magnaporthe grisea is “H (more than 50% control value)”. Besides, the “Test E control value” in the assay with Puccinia recondita was “H (more than 50% control value)”. Also, the “Test C control value” in the assay with Alternaia brassicicola is “H (more than 50% control value)”. The “Test H control value” in assay [1] is on record as “H (more than 50% control value)”. The “Test F control value” in the assay on Phytophthora infestans is “L (50% or less control value)”. Besides, the “Test D control value” in assay [2] is “H (more than 50% control value)”. Moreover, the “Test B control value” in the assay on Botrytis cinerea is recorded as “H (more than 50% control value)”.
For the compound `CCC(C)(O)c1cc(Cl)c(=O)n(C)c1-c1c(F)cc(F)cc1F` (centres unmarked) [compound 505], the “Test G control value” in the assay with Plasmopara viticola was “H (more than 50% control value)”. In the assay on Magnaporthe grisea, the “Test A control value” is “H (more than 50% control value)”. In the assay on Puccinia recondita, the “Test E control value” is “H (more than 50% control value)”. The “Test C control value” in the assay with Alternaia brassicicola is on record as “H (more than 50% control value)”. Besides, in assay [1], the “Test H control value” was “H (more than 50% control value)”. For the same compound, the “Test F control value” with Phytophthora infestans was “L (50% or less control value)”. For the same compound, the “Test D control value” in assay [2] is given as “H (more than 50% control value)”. Besides, the “Test B control value” with Botrytis cinerea is recorded as “H (more than 50% control value)”.
Turning to `CCC(OC)c1cc(Cl)c(=O)n(C)c1-c1c(F)cc(OC)cc1F` (centres unmarked) [compound 506], the “Test G control value” in the assay on Plasmopara viticola is recorded as “H (more than 50% control value)”. In addition, the “Test A control value” with Magnaporthe grisea is on record as “H (more than 50% control value)”. The “Test E control value” with Puccinia recondita was “H (more than 50% control value)”. For the same compound, the “Test C control value” in the assay on Alternaia brassicicola is listed as “H (more than 50% control value)”. Also, in assay [1], the “Test H control value” is listed as “H (more than 50% control value)”. Moreover, the “Test F control value” in the assay with Phytophthora infestans is listed as “L (50% or less control value)”. Further, the “Test D control value” in assay [2] is “H (more than 50% control value)”. In addition, in the assay on Botrytis cinerea, the “Test B control value” is “H (more than 50% control value)”.
In the case of `CCC(OC)c1cc(Br)c(=O)n(CC)c1-c1c(F)cc(OC)cc1F` (centres unmarked) [compound 507], the “Test G control value” in the assay with Plasmopara viticola is reported as “H (more than 50% control value)”. The “Test A control value” in the assay on Magnaporthe grisea is reported as “H (more than 50% control value)”. In addition, the “Test E control value” with Puccinia recondita is recorded as “H (more than 50% control value)”. Moreover, the “Test C control value” in the assay with Alternaia brassicicola is recorded as “H (more than 50% control value)”. Also, the “Test H control value” in assay [1] is listed as “H (more than 50% control value)”. Besides, the “Test F control value” with Phytophthora infestans was “L (50% or less control value)”. The “Test D control value” in assay [2] is given as “H (more than 50% control value)”. Moreover, the “Test B control value” in the assay on Botrytis cinerea is “H (more than 50% control value)”.
Turning to `CCC(C)(OC)c1cc(Cl)c(=O)n(C)c1-c1c(F)cc(F)cc1F` (centres unmarked) [compound 508], the “Test G control value” in the assay with Plasmopara viticola is listed as “H (more than 50% control value)”. Moreover, the “Test A control value” in the assay with Magnaporthe grisea is “H (more than 50% control value)”. The “Test E control value” in the assay with Puccinia recondita is given as “H (more than 50% control value)”. In the assay with Alternaia brassicicola, the “Test C control value” was “H (more than 50% control value)”. Also, in assay [1], the “Test H control value” is reported as “H (more than 50% control value)”. In the assay with Phytophthora infestans, the “Test F control value” is reported as “L (50% or less control value)”. Also, the “Test D control value” in assay [2] is reported as “H (more than 50% control value)”. The “Test B control value” with Botrytis cinerea was “H (more than 50% control value)”.
Take `CCOC(C)(CC)c1cc(Cl)c(=O)n(C)c1-c1c(F)cc(F)cc1F` (centres unmarked) [compound 509]: the “Test G control value” in the assay with Plasmopara viticola is “H (more than 50% control value)”. The “Test A control value” with Magnaporthe grisea is “H (more than 50% control value)”. For the same compound, in the assay with Puccinia recondita, the “Test E control value” is reported as “H (more than 50% control value)”. The “Test C control value” in the assay on Alternaia brassicicola is “L (50% or less control value)”. In assay [1], the “Test H control value” is “H (more than 50% control value)”. Besides, the “Test F control value” in the assay on Phytophthora infestans was “L (50% or less control value)”. Moreover, in assay [2], the “Test D control value” is recorded as “H (more than 50% control value)”. In addition, the “Test B control value” with Botrytis cinerea is on record as “L (50% or less control value)”.
For the compound `CCn1c(-c2c(F)cccc2F)c(C=O)ccc1=O` [compound 510], the “Test G control value” in the assay on Plasmopara viticola is on record as “L (50% or less control value)”. Moreover, the “Test A control value” in the assay on Magnaporthe grisea was “H (more than 50% control value)”. Besides, the “Test E control value” with Puccinia recondita is recorded as “L (50% or less control value)”. Moreover, in the assay with Alternaia brassicicola, the “Test C control value” is “L (50% or less control value)”. Further, the “Test H control value” in assay [1] is on record as “L (50% or less control value)”. Also, the “Test F control value” in the assay on Phytophthora infestans is “L (50% or less control value)”. Further, the “Test D control value” in assay [2] is “L (50% or less control value)”. Also, the “Test B control value” in the assay with Botrytis cinerea is recorded as “L (50% or less control value)”.
Turning to `CCC(C)(OC)c1cc(Cl)c(=O)n(C)c1-c1c(F)cc(OC)cc1F` (centres unmarked) [compound 511], the “Test G control value” in the assay with Plasmopara viticola is listed as “H (more than 50% control value)”. Besides, the “Test A control value” in the assay on Magnaporthe grisea was “H (more than 50% control value)”. For the same compound, in the assay with Puccinia recondita, the “Test E control value” is on record as “H (more than 50% control value)”. Besides, in the assay on Alternaia brassicicola, the “Test C control value” is recorded as “H (more than 50% control value)”. The “Test H control value” in assay [1] is “H (more than 50% control value)”. Besides, the “Test F control value” in the assay with Phytophthora infestans was “L (50% or less control value)”. Besides, in assay [2], the “Test D control value” was “L (50% or less control value)”. For the same compound, the “Test B control value” in the assay with Botrytis cinerea was “H (more than 50% control value)”.
For `CCC(C)(O)c1cc(Cl)c(=O)n(C)c1-c1c(F)cc(OC)cc1F` (centres unmarked) [compound 513], the “Test G control value” with Plasmopara viticola is given as “H (more than 50% control value)”. The “Test A control value” with Magnaporthe grisea is listed as “H (more than 50% control value)”. Moreover, the “Test E control value” with Puccinia recondita was “H (more than 50% control value)”. Also, in the assay with Alternaia brassicicola, the “Test C control value” was “H (more than 50% control value)”. Moreover, in assay [1], the “Test H control value” is listed as “H (more than 50% control value)”. For the same compound, the “Test F control value” in the assay on Phytophthora infestans was “L (50% or less control value)”. Also, the “Test D control value” in assay [2] was “H (more than 50% control value)”. Moreover, the “Test B control value” with Botrytis cinerea was “H (more than 50% control value)”.
Turning to `CCn1c(-c2c(F)cc(F)cc2F)c(C(C)O)cc(Cl)c1=O` (centres unmarked) [compound 514], the “Test G control value” in the assay on Plasmopara viticola is “H (more than 50% control value)”. Also, in the assay on Magnaporthe grisea, the “Test A control value” is reported as “L (50% or less control value)”. In the assay with Puccinia recondita, the “Test E control value” is listed as “H (more than 50% control value)”. For the same compound, the “Test C control value” in the assay with Alternaia brassicicola was “H (more than 50% control value)”. In assay [1], the “Test H control value” is given as “H (more than 50% control value)”. The “Test F control value” in the assay on Phytophthora infestans is recorded as “L (50% or less control value)”. For the same compound, in assay [2], the “Test D control value” is listed as “H (more than 50% control value)”. In addition, in the assay on Botrytis cinerea, the “Test B control value” is “H (more than 50% control value)”.
Regarding `CCn1c(-c2c(F)cccc2F)c(C(O)C(C)C)cc(Br)c1=O` (centres unmarked) [compound 520], the “Test G control value” in the assay with Plasmopara viticola was “H (more than 50% control value)”. For the same compound, in the assay with Magnaporthe grisea, the “Test A control value” is recorded as “H (more than 50% control value)”. The “Test E control value” in the assay on Puccinia recondita is “H (more than 50% control value)”. Moreover, in the assay with Alternaia brassicicola, the “Test C control value” is “H (more than 50% control value)”. Moreover, the “Test H control value” in assay [1] is listed as “H (more than 50% control value)”. In the assay with Phytophthora infestans, the “Test F control value” is listed as “L (50% or less control value)”. In addition, in assay [2], the “Test D control value” was “H (more than 50% control value)”. In addition, the “Test B control value” in the assay on Botrytis cinerea is “H (more than 50% control value)”.
As for `CCn1c(-c2c(F)cccc2F)c(C(C)(O)C(C)C)ccc1=O` (centres unmarked) [compound 521], in the assay with Plasmopara viticola, the “Test G control value” is “H (more than 50% control value)”. The “Test A control value” with Magnaporthe grisea is “L (50% or less control value)”. For the same compound, the “Test E control value” in the assay on Puccinia recondita is given as “H (more than 50% control value)”. Besides, the “Test C control value” with Alternaia brassicicola is on record as “H (more than 50% control value)”. Also, in assay [1], the “Test H control value” is “L (50% or less control value)”. Also, the “Test F control value” with Phytophthora infestans was “L (50% or less control value)”. Further, the “Test D control value” in assay [2] is listed as “H (more than 50% control value)”. In the assay on Botrytis cinerea, the “Test B control value” is listed as “H (more than 50% control value)”.
